The values that follow come from patent US9725463B2, “Substituted heterocyclic compounds as CRAC modulators” (LUPIN LIMITED, priority 2013, dated 2017).

Molecules are shown by their SMILES.

The test has as its system IL-2 secretion by Jurkat T cells. The experiment in a line: Inhibition of IL-2 secretion. Type of test: cell-based. To be noted: Homo sapiens; Jurkat T cells stimulated with PHA, 20 to 24 hours, IL-2 by ELISA. On the procedure: The CRAC channel modulatory activity of the compounds were thus evaluated by measuring the secretion of IL-2 by antigen stimulated T-cells in vitro. Alternatively, such activity can also be evaluated by assay methods known to one skilled in the art.
Inhibition of IL-2 secretion: Jurkat T cells were seeded at a density of 0.5 to 1 million cells per well in RPMI medium. Test compounds from this invention were added to the cells at different concentrations. This was followed by the addition of PHA, a T cell mitogen after 10 minutes. The cells were then incubated for 20 to 24 hours in a CO2 incubator at 37° C. After incubation with the compounds, cells were centrifuged, the supernatant was collected and processed for ELISA to quantitate the amount of IL-2 secreted. A commercial ELISA kit (R&D Systems, Inc. Minneapolis, Minn., USA) was used to estimate the IL-2 concentrations. Amount of IL-2 secreted by cells stimulated with PHA was considered as a 100% maximal signal and the decrease in amount of IL-2 secreted by cells treated with the test compounds was expressed as percent inhibition of the maximal signal. The dose response data was analyzed using 4-parametric sigmoidal dose response (variable slope) curve-fit.
Consider `CCc1cc2c(cc1-c1ccc(C(=O)Nc3c(F)cccc3F)s1)oc(=O)n2C` [Example 73, N-(2,6-Difluorophenyl)-5-(5-ethyl-3-methyl-2-oxo-2,3-dihydrobenzo [d]oxazol-6-yl) thiophene-2-carboxamide], for which the IC50 (usually the concentration that inhibits the measured activity by half) fell in the range of 25 to 50 nM.
Next, `Cn1c(=O)oc2cc(-c3ccc(C(=O)Nc4c(F)cccc4F)s3)c(C3CC3)cc21` [Example 74, 5-(5-Cyclopropyl-3-methyl-2-oxo-2,3-dihydrobenzo [d]oxazol-6-yl)-N-(2,6-difluorophenyl) thiophene-2-carboxamide]: 50 to 100 nM.
The same measure for `Cc1cc2c(cc1-c1ccc(C(=O)Nc3c(F)cccc3F)s1)oc(=O)n2C` [Example 75, N-(2,6-Difluorophenyl)-5-(3,5-dimethyl-2-oxo-2,3-dihydrobenzo[d]oxazol-6-yl)thiophene-2-carboxamide]: 25 to 50 nM.
For the compound `Cc1cc2oc(=O)n(C(F)F)c2cc1-c1ccc(NC(=O)c2c(F)cccc2F)cn1` [Example 76, N-(6-(3-(Difluoromethyl)-6-methyl-2-oxo-2,3-dihydrobenzo[d]oxazol-5-yl)pyridin-3-yl)-2,6-difluorobenzamide], the IC50 lay in the range of 25 to 50 nM.
Next, `Cc1cc2oc(=O)n(C(F)F)c2cc1-c1ccc(NC(=O)c2c(F)cccc2F)nc1` [Example 77, N-(5-(3-(Difluoromethyl)-6-methyl-2-oxo-2,3-dihydrobenzo[d]oxazol-5-yl)pyridin-2-yl)-2,6 difluorobenzamide]: less than 25 nM.
For `Cc1cc2oc(=O)n(C(F)F)c2cc1-c1cnc(NC(=O)c2c(F)cccc2F)cn1` [Example 78, N-(5-(3-(Difluoromethyl)-6-methyl-2-oxo-2,3-dihydrobenzo[d]oxazol-5-yl)pyrazin-2-yl)-2,6-difluorobenzamide], the IC50 is less than 25 nM.
For `CCc1cc2oc(=O)n(C)c2cc1-c1cnc(NC(=O)c2c(F)cccc2F)cn1` [Example 80, N-(5-(6-Ethyl-3-methyl-2-oxo-2,3-dihydrobenzo[d]oxazol-5-yl)pyrazin-2-yl)-2,6-difluoro benzamide], the IC50 lay within 50 to 100 nM.
In turn, `CCc1cc2oc(=O)n(C)c2cc1-c1ccc(NC(=O)c2c(F)cccc2F)cn1` [Example 81, N-(6-(6-Ethyl-3-methyl-2-oxo-2,3-dihydrobenzo [d]oxazol-5-yl)pyridin-3-yl)-2,6-difluoro benzamide] had an IC50 of 50 to 100 nM.
Take `CCc1cc2oc(=O)n(C)c2cc1-c1ccc(NC(=O)c2c(F)cccc2F)nc1` [Example 82, N-(5-(6-Ethyl-3-methyl-2-oxo-2,3-dihydrobenzo[d]oxazol-5-yl)pyridin-2-yl)-2,6-difluoro benzamide]: the concentration for half-maximal inhibition (IC50) is less than 25 nM.
The compound `Cn1c(=O)oc2cc(C3CC3)c(-c3ccc(NC(=O)c4c(F)cccc4F)nc3)cc21` [Example 83, N-(5-(6-Cyclopropyl-3-methyl-2-oxo-2,3-dihydrobenzo [d]oxazol-5-yl)pyridin-2-yl)-2,6-difluorobenzamide] came in with an IC50 of 25 to 50 nM.
Turning to `Cn1c(=O)oc2cc(C3CC3)c(-c3cnc(NC(=O)c4c(F)cccc4F)cn3)cc21` [Example 84, N-(5-(6-Cyclopropyl-3-methyl-2-oxo-2,3-dihydrobenzo [d]oxazol-5-yl)pyrazin-2-yl)-2,6-difluorobenzamide], the IC50 fell in the range of 25 to 50 nM.
In turn, `CCc1cc2oc(=O)n(C)c2cc1-c1ccc(NC(=O)c2c(F)cccc2F)cc1` [Example 85, N-(4-(6-Ethyl-3-methyl-2-oxo-2,3-dihydrobenzo [d]oxazol-5-yl)phenyl)-2,6-difluorobenzamide] registered an IC50 of less than 25 nM.
Turning to `Cn1c(=O)oc2cc(-c3cnc(NC(=O)c4c(F)cccc4F)cn3)c(C3CC3)nc21` [Example 86, N-(5-(5-Cyclopropyl-3-methyl-2-oxo-2,3-dihydrooxazolo[4,5-b]pyridin-6-yl)pyrazin-2-yl)-2,6-difluorobenzamide], the IC50 is 25 to 50 nM.
`CCc1cc2oc(=O)n(C)c2cc1-c1ccc(C(=O)Nc2c(F)cccc2F)s1` [Example 88, N-(2,6-Difluorophenyl)-5-(6-ethyl-3-methyl-2-oxo-2,3-dihydrobenzo [d]oxazol-5-yl) thiophene-2-carboxamide] gave an IC50 of less than 25 nM.
`Cn1c(=O)oc2cc(C3CC3)c(-c3ccc(C(=O)Nc4c(F)cccc4F)s3)cc21` [Example 89, 5-(6-Cyclopropyl-3-methyl-2-oxo-2,3-dihydrobenzo[d]oxazol-5-yl)-N-(2,6-difluorophenyl) thiophene-2-carboxamide]: the IC50 is less than 25 nM.
`CCc1cc2c(cc1-c1ccc(C(=O)Nc3c(F)cncc3F)cc1)oc(=O)n2C` [Example 90, N-(3,5-Difluoropyridin-4-yl)-4-(5-ethyl-3-methyl-2-oxo-2,3-dihydrobenzo [d]oxazol-6-yl) benzamide]: the IC50 is 25 to 50 nM.
Next, `CCc1cc2oc(=O)n(C)c2cc1-c1ccc(C(=O)Nc2c(F)cncc2F)cc1` [Example 92, N-(3,5-Difluoropyridin-4-yl)-4-(6-ethyl-3-methyl-2-oxo-2,3-dihydrobenzo [d]oxazol-5-yl) benzamide]: less than 25 nM; `Cn1c(=O)oc2cc(C3CC3)c(-c3ccc(C(=O)Nc4c(F)cncc4F)cc3)cc21` [Example 93, 4-(6-Cyclopropyl-3-methyl-2-oxo-2,3-dihydrobenzo[d]oxazol-5-yl)-N-(3,5-difluoropyridin-4-yl)benzamide]: less than 25 nM; `Cn1c(=O)oc2cc(C3CC3)c(-c3ccc(NC(=O)c4c(F)cccc4F)cc3)cc21` [Example 94, N-(4-(6-Cyclopropyl-3-methyl-2-oxo-2,3-dihydrobenzo [d]oxazol-5-yl)phenyl)-2,6-difluorobenzamide]: less than 25 nM.
The compound `O=C(Nc1ccc(-c2ccc3c(oc(=O)n3C(F)F)c2C2CC2)cc1)c1c(F)cccc1F` [Example 95, N-(4-(7-Cyclopropyl-3-(difluoromethyl)-2-oxo-2,3-dihydrobenzo[d]oxazol-6-yl)phenyl)-2,6-difluorobenzamide] displayed an IC50 of less than 25 nM.
For the compound `Cn1c(=O)oc2c(C3CC3)c(-c3ccc(NCc4c(F)cccc4F)cc3)ccc21` [Example 100, 7-Cyclopropyl-6-(4-((2,6-difluorobenzyl)amino)phenyl)-3-methylbenzo [d]oxazol-2(3H)-one], the IC50 was in the range of 25 to 50 nM.
Take `Cn1c(=O)oc2c(C3CC3)c(-c3ccc(NC(=O)c4c(F)cccc4Cl)cc3)ccc21` [Example 101, 2-Chloro-N-(4-(7-cyclopropyl-3-methyl-2-oxo-2,3-dihydrobenzo[d]oxazol-6-yl)phenyl)-6-fluorobenzamide]: the IC50 is less than 25 nM.
The compound `Cn1c(=O)oc2c(C3CC3)c(-c3ccc(NC(=O)c4ccccc4Cl)cc3)ccc21` [Example 103, 2-Chloro-N-(4-(7-cyclopropyl-3-methyl-2-oxo-2,3-dihydrobenzo[d]oxazol-6-yl)phenyl)benzamide] registered an IC50 of 50 to 100 nM.
With `CN1C(=O)COc2c1ccc(-c1ccc(NC(=O)c3c(F)cccc3F)cc1)c2C1CC1` [Example 107, N-(4-(8-Cyclopropyl-4-methyl-3-oxo-3,4-dihydro-2H-benzo[b][1,4]oxazin-7-yl)phenyl)-2,6-difluorobenzamide], the IC50 is less than 25 nM.
`CN1C(=O)COc2c1ccc(-c1cnc(NC(=O)c3c(F)cccc3F)cn1)c2C1CC1` [Example 109, N-(5-(8-Cyclopropyl-4-methyl-3-oxo-3,4-dihydro-2H-benzo[b][1,4]oxazin-7-yl)pyrazin-2-yl)-2,6-difluorobenzamide] registered an IC50 of 50 to 100 nM.
